Read-outs that look alike come from different tables or passages of the source.
Experiments:
LPS-treated macrophages = conditions: cited from earlier work
Balb/C mice [1] = conditions: Al-Abed et al., 2005; cited from earlier work
MIF [2] = biological target: T1, MIF (Homo sapiens, UniProt P14174); assay: Spectrophotometric assay of MIF tautomerase activity on L-dopachrome methyl ester; type: biochemical
T1 sequence (P14174 2-115 limits assumed): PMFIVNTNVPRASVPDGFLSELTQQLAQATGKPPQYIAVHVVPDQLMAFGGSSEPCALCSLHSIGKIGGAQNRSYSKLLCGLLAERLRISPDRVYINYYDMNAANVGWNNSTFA
Experimental: The inhibitors 3-15 were dissolved in DMSO at various concentrations (0.1-100 μM) and 1 μL was added to the cuvette with the MIF prior to the addition of the dopachrome.
The inhibitors were dissolved in DMSO at various concentrations (0.1-100 mM) and added to the cuvette with the MIF prior to the addition of the dopachrome.

Balb/C mice [3] = assay: Cecal ligation and puncture (CLP) sepsis model, survival; type: in vivo; conditions: 4 mg/kg intraperitoneal, initiated 24 h after CLP, continued for 3 days; control 28%
Experimental: FIG. 4 is a graph of experimental results showing that the hydrazone compound 7 is protective after 24 h late treatment in a CLP model. Mice were injected intraperitoneally with compound 7 (“hydrazone”) (4 mg/kg) (n=13, p<0.01) or vehicle 24 h after CLP (n=13). A single injection was composed of 100 μg of Compound 7 (equivalent to 4 mg/kg) in 200 μL of 20% DMSO: 80% saline solution. Additional administrations of compound 7 (bi-daily) were given on days 2 and 3.
All animal experiments were approved by the Institutional Animal Care and Use Committee of the North Shore-Long Island Jewish Research Institute. Male Balb/C mice, ˜8 weeks old, were subjected to cecal ligation and puncture. Details of the CLP procedure has been carried out as follows: In anesthetized male Balb/C mice (ketamine 100 mg/kg and xylazine 8 mg/kg administered intramuscularly) the cecum was ligated and given a single puncture. Abdominal access was gained via a midline incision. The cecum was isolated and ligated with a 6-0 silk ligature below the ileocecal valve, and the cecum punctured once with a 22 G needle, stool (approximately 1 mm) extruded from the hole, and the cecum placed back into the abdominal cavity. The abdomen was closed with two layers of 6-0 Ethilon sutures. […] Animal survival was monitored for 14 days. […]

Swiss Webster male mice = assay: Carrageenan air pouch model, leukocyte recruitment; type: in vivo; conditions: oral administration; assessed by inhibition of leukocyte infiltration
Experimental: Air pouches were made according to standard procedures (Garcia-Ramallo et al., 2002) on Swiss Webster male mice (25-30 g) by injecting sterile air s.c. on day 0 (6 ml) and day 3 (3 ml). On day 6, animals were treated with vehicle (350 μl of 20% DMSO) or compound 7 (7 mg/kg) either intraperitoneal (i.p.) or gavage (oral) as indicated. After 15 min, the animals were challenged by injecting 1 ml 1% carrageenan (in PBS) into the air pouch cavity. Five hrs after carrageenan injection the animals were sacrificed, the pouches washed with PBS, exudate collected, and the total number of infiltrating cells quantitated.
In another experiment, air pouches were made as above. On day 6, animals were treated with vehicle (350 μl of 20% DMSO) or compound 7 (7 mg/kg, gavage) at the indicated times prior to sacrificing and cell harvesting. In all cases, 1% carrageenan was injected into the air pouch cavity 5 hrs before sacrificing.

MIF [4] = biological target: T1, MIF; conditions: previously shown (Dios et al., 2002); read-out: IC50, L-amino acid Schiff bases, MIF tautomerase; cited from earlier work
[5] = Table 1, L-dopachrome methyl ester substrate, read-out: IC50 for inhibition of MIF tautomerase activity
[6] = read-out: IC50, MIF tautomerase activity
[7] = read-out: IC50, MIF tautomerase

COC(=O)CC1CC(c2ccc(O)cc2)=NO1 (stereo not drawn) [Compound 2, ISO-1]
inhibition of LPS-induced TNF release (LPS-treated macrophages; MIF null macrophages): not | inhibition of LPS-induced TNF release (LPS-treated macrophages; wild-type macrophages): dose-dependently inhibits | survival in septic mice (Balb/C mice [1]): significantly improves survival

NN=Cc1ccc(O)cc1 [Compound 3]
IC50 (MIF [2]; [5]): > 500000 nM | IC50 (MIF [2]; [6]): > 500000 nM | melting point: 248 to 250 °C

CNN=Cc1ccc(O)cc1 [Compound 4]
IC50 (MIF [2]; [6]): 43000 nM | melting point: 58 to 60 °C

Oc1ccc(C=NNc2ccccc2)cc1 [Compound 5]
IC50 (MIF [2]; [6]): 2600 nM | melting point: 154 to 156 °C

COc1ccc(NN=Cc2ccc(O)cc2)cc1 [Compound 6]
IC50 (MIF [2]; [5]): 480 nM

COc1ccc(NN=Cc2ccc(O)c(F)c2)cc1 [Compound 7]
survival rate (Balb/C mice [3]): 65% | IC50 (MIF [2]; [7]): 130 nM | apparent biological half-life (Swiss Webster male mice): 7-9 hours

COc1ccc(NN=Cc2ccc(O)c(Cl)c2)cc1 [Compound 8]
IC50 (MIF [2]; [7]): 220 nM | melting point: 108 to 110 °C

COc1ccc(NN=Cc2ccc(O)c(Br)c2)cc1 [Compound 9]
IC50 (MIF [2]; [7]): 330 nM | melting point: 135 to 137 °C

CN(N=Cc1ccc(O)cc1)c1ccccc1 [Compound 10]
IC50 (MIF [2]; [6]): 300000 nM | melting point: 93 to 95 °C

CCOC(=O)NN=Cc1ccc(O)cc1 [Compound 12]
melting point: 189 to 190 °C

CC(C)(C)OC(=O)NN=Cc1ccc(O)cc1 [Compound 13]
melting point: 155 to 156 °C

O=C(NN=Cc1ccc(O)cc1)OCc1ccccc1 [Compound 14]
melting point: 159 to 160 °C

COc1ccc(COC(=O)NN=Cc2ccc(O)cc2)cc1 [Compound 15]
melting point: 147 to 148 °C

CC(C)(C)OC(=O)NN=Cc1ccc(O)c(F)c1 [Compound 18]
IC50 (MIF [2]; Table 2, hydrazone carbamates, L-dopachrome methyl ester substrate, read-out: IC50 for inhibition of MIF tautomerase activity): 2400 nM

N[C@@H](Cc1ccccc1)C(=O)O [L-phenylalanine]
IC50 (MIF [4]): 50000 nM

N[C@@H](Cc1ccc(O)cc1)C(=O)O [L-tyrosine]
IC50 (MIF [4]): 10000 nM

Source: US8742173B2, “Phenolic hydrazone macrophage migration inhibitory factor inhibitors” (The Feinstein Institute for Medical Research, priority 2006, dated 2014)
